The target in series [1] is T1, Glutaminase kidney isoform, mitochondrial (Homo sapiens, UniProt O94925).
T1 sequence (O94925 whole entry): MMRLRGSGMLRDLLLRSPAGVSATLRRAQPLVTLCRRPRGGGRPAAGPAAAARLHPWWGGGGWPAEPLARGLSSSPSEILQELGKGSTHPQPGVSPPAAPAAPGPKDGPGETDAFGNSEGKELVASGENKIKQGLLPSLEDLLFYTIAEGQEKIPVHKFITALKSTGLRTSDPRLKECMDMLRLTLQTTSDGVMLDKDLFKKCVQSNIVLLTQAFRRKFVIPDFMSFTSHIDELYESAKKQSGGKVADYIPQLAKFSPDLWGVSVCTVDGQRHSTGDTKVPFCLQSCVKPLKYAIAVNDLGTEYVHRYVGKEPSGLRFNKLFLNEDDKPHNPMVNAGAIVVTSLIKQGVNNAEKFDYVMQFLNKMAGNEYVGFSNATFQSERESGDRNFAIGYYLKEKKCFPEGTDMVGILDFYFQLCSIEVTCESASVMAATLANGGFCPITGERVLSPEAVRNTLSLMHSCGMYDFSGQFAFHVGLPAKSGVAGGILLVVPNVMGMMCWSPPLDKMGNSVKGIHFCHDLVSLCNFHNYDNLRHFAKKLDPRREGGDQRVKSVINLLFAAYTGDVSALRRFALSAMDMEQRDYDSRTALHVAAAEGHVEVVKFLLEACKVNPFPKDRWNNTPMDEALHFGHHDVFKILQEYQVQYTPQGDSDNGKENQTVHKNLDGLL
Description: Inhibition of human GLS1 expressed in Escherichia coli strain BL21 (DE3)pLysS pre-incubated for 10 mins before glutamine addition and measured after 60 mins by bovine liver glutamate dehydrogenase based coupled enzyme assay.

Series [2] addresses T1, Glutaminase kidney isoform, mitochondrial. Description: Inhibition of N-[2-[(3',6'-dihydroxy-1-oxo-spiro[isobenzofuran-3,9'-xanthene]-5-yl)carbamothioylamino]ethyl]-N'-[6-[4-[5-[[2-(2-pyridyl)acetyl]amino]-1,3,4-thiadiazol-2-yl]butyl]pyridazin-3-yl]pentanediamide binding to human GLS1 expressed in Escherichia coli strain BL21 (DE3)pLysS by fluorescence polarization binding assay.

The subject of the next series is HCT-116. Description: Antiproliferative activity against human HCT116 cells assessed as reduction in cell viability incubated for 72 hrs by MTT assay. The series is classed as functional, cell-based. The note with it: HCT-116, 72 h.
In the next series the test system is MDA-MB-436. Description: Antiproliferative activity against human MDA-MB-436 cells assessed as reduction in cell viability incubated for 72 hrs by MTT assay. It is filed as functional, cell-based. The note with it: MDA-MB-436, 72 h.
Series [3] can be described thus: Distribution coefficient, logD of the compound incubated for 72 hrs by LC-MS based shake-flask method. It is filed as physicochemical. The note with it: octanol/water.
The nature of series [4]: Ratio of intrinsic aqueous solubility of the test compound to CB839 incubated for 72 hrs by LC-MS based shake-flask method. The series is classed as physicochemical. The note with it: buffer.
Series [5] in a line: Intrinsic aqueous solubility incubated for 72 hrs by LC-MS based shake-flask method. It is filed as physicochemical. As to conditions: buffer; call rule not given here.
The target in series [6] is T1, Glutaminase kidney isoform, mitochondrial. Description: (§1) Binding affinity to human GLS1 expressed in Escherichia coli strain BL21 (DE3)pLysS by SPR assay.
Series [7] has as its target T2, Glutaminase kidney isoform, mitochondrial (Homo sapiens) (UniProt O94925).
T2 sequence (whole entry): T1 sequence (O94925 whole entry)
Description: Binding affinity to human GLS1 expressed in Escherichia coli strain BL21 (DE3)pLysS assessed as change in melting temperature by SYPRO orange dye based protein thermal shift assay

Series [8] has as its target Serum albumin (Bos taurus) (UniProt P02769). Description: Binding affinity to BSA by fluorescence polarization binding assay relative to control. The note with it: bovine.
Series [9] has as its target T2, Glutaminase kidney isoform, mitochondrial (Homo sapiens). Description: Binding affinity to 1 uM human GLS1 expressed in Escherichia coli strain BL21 (DE3)pLysS by fluorescence polarization binding assay relative to control.
The target in series [10] is T1, Glutaminase kidney isoform, mitochondrial. Description: Binding affinity to human GLS1 expressed in Escherichia coli strain BL21 (DE3)pLysS by fluorescence polarization binding assay.
In series [11] the target is T2, Glutaminase kidney isoform, mitochondrial (Homo sapiens). The description is as §1.

pIC50, pKd: −log10 of the molar value. In brackets after ≈: the same amount, converted by molar mass.

Serum albumin (Bos taurus), sequence (P02769 whole entry, looked up, canonical isoform): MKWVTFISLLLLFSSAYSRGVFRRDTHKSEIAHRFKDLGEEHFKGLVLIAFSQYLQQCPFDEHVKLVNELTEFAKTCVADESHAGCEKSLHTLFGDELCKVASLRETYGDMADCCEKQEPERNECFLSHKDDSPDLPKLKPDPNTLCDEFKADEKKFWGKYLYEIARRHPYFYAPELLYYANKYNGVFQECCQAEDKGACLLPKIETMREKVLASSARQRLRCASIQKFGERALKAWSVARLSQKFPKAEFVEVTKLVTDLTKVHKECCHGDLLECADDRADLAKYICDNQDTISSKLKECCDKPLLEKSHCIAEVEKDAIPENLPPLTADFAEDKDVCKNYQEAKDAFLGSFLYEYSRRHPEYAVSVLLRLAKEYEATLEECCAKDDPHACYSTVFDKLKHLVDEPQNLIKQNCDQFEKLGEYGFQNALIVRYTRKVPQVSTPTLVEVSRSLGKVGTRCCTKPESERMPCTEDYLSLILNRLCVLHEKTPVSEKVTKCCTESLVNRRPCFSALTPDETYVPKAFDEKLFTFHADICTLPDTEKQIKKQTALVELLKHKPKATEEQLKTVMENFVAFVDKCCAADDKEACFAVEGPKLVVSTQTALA

Regarding `O=C(CCc1cn(Cc2ccc(Br)cc2)nn1)Nc1nnc(CCCCc2nnc(NC(=O)Cc3ccccc3)s2)s1`, the pIC50 is 6.01 in series [1], 5.97 in [2], 5.73 with HCT-116 and 5.39 with MDA-MB-436.

In the case of `N#Cc1ccc(Cn2cc(CCC(=O)Nc3nnc(CCCCc4nnc(NC(=O)Cc5ccccc5)s4)s3)nn2)cc1`, the pIC50 in [1] was 6.08; in series [2], 6.03; with HCT-116, 5.29; in the series on MDA-MB-436, 5.53.

For `O=C(Cc1cccc(OC(F)(F)F)c1)Nc1ccc(CCCCc2nnc(NC(=O)Cc3ccccn3)s2)nn1`, the logD at 72 h in series [3] was 1.9. The values for the pIC50 in the series on HCT-116 and in the series with MDA-MB-436 were 7.22 and 6.28, respectively.

As to `O=C(CCc1cn(Cc2ccc(OC(F)(F)F)cc2)nn1)Nc1ccc(CCCCc2nnc(NC(=O)Cc3ccccn3)s2)nn1`, the pIC50 in series [1] is 6.52; in [2] it was 6.41; with HCT-116 it was 6.60; in the series on MDA-MB-436 it was 6.51.

For `O=C(Cc1ccccc1)Nc1nnc(CCSCCc2nnc(NC(=O)Cc3ccccc3)s2)s1`, the results for the pIC50 with HCT-116 and with MDA-MB-436 were 5.99 and 5.62, respectively.

Consider `O=C(CCc1cn(Cc2ccc(C(F)(F)F)cc2)nn1)Nc1ccc(CCCCc2nnc(NC(=O)Cc3ccccn3)s2)nn1`, for which the pIC50 in series [1] is 7.36; in series [2] it was 7.14; in the series with HCT-116, 6.74; in the series with MDA-MB-436, 6.68.

Consider `O=C(CCc1cn(Cc2ccc([N+](=O)[O-])cc2)nn1)Nc1nnc(CCCCc2nnc(NC(=O)Cc3ccccc3)s2)s1`, for which the pIC50 in series [1] was 5.60; in [2], 5.56; in the series with HCT-116 it was 5.98; in the series on MDA-MB-436, 4.97.

In the case of `Cc1ccc(Cn2cc(CCC(=O)Nc3nnc(CCCCc4nnc(NC(=O)Cc5ccccc5)s4)s3)nn2)cc1`, the pIC50 is 6.38 in series [1], 6.25 in series [2], 5.80 in the series on HCT-116 and 5.75 with MDA-MB-436.

Regarding `O=C(CCc1cn(Cc2ccccc2)nn1)Nc1nnc(CCCCc2nnc(NC(=O)Cc3ccccc3)s2)s1`, the pIC50 is 6.05 in series [1], 6.04 in series [2], 5.32 in the series with HCT-116 and 5.94 in the series on MDA-MB-436.

With `O=C(CCc1cn(Cc2ccc(F)cc2)nn1)Nc1nnc(CCCCc2nnc(NC(=O)Cc3ccccc3)s2)s1`, the negative-log IC50 (pIC50) in [1] is 5.95; in series [2], 5.91; in the series on HCT-116, 5.96; in the series on MDA-MB-436 it was 6.46.

For `Cc1ccc(Cn2cc(CCC(=O)Nc3ccc(CCCCc4nnc(NC(=O)Cc5ccccn5)s4)nn3)nn2)cc1`, in series [3], the logD at 72 h turned out to be 1.29. In addition, the pIC50 in series [1] was 7.57; in series [2], 7.39; in the series with HCT-116, 6.82; in the series with MDA-MB-436 it was 6.74. Besides, the Ratio in [4] was 9. In [5], this compound displayed a thermodynamic solubility at 72 h of 20.8 µg/mL (≈ 34.9 µM). The compound also had a pKd in series [6] of 7.17. Moreover, in series [7], the shift in melting temperature (ΔTm) is 16.5 °C.

As for `Cc1cccc(C)c1Cn1cc(CCC(=O)Nc2ccc(CCCCc3nnc(NC(=O)Cc4ccccn4)s3)nn2)nn1`, the negative logarithm of the IC50 (pIC50) in [1] was 6.49; in series [2], 6.34; in the series on HCT-116, 6.57; in the series with MDA-MB-436, 6.47.

Consider `Cc1cccc(C)c1Cn1cc(CCC(=O)Nc2nnc(CCCCc3nnc(NC(=O)Cc4ccccc4)s3)s2)nn1`, for which the negative logarithm of the IC50 (pIC50) in [1] is 6.28; in [2] it was 6.11; in the series on HCT-116 it was 6.13; in the series on MDA-MB-436, 6.12.

Take `O=C(CCc1cn(Cc2ccc(Cl)cc2)nn1)Nc1nnc(CCCCc2nnc(NC(=O)Cc3ccccc3)s2)s1`: the pIC50 in [1] is 5.90; in series [2] it was 5.86; in the series on HCT-116, 5.47; in the series on MDA-MB-436, 5.94.

For the compound `COc1ccc(Cn2cc(CCC(=O)Nc3nnc(CCCCc4nnc(NC(=O)Cc5ccccc5)s4)s3)nn2)cc1OC`, the pIC50 in series [1] was 6.30; in series [2], 6.07; with HCT-116 it was 6.35; in the series with MDA-MB-436, 6.10.

`Cc1ccc(Cn2cc(CCC(=O)Nc3ccc(CCCCc4nnc(NC(=O)Cc5ccccn5)s4)nn3)nn2)c(C)c1`: the pIC50 is 6.96 in series [1], 6.68 in series [2], 6.14 with HCT-116 and 6.70 in the series on MDA-MB-436.

As to `COc1ccc(Cn2cc(CCC(=O)Nc3ccc(CCCCc4nnc(NC(=O)Cc5ccccn5)s4)nn3)nn2)cc1OC`, the pIC50 in series [1] is 6.48; in series [2], 6.40; in the series with HCT-116, 6.42; with MDA-MB-436 it was 6.40.

For the compound `COc1ccc(Cn2cc(CCC(=O)Nc3ccc(CCCCc4nnc(NC(=O)Cc5ccccn5)s4)nn3)nn2)cc1`, the pIC50 is 6.82 in [1], 6.72 in series [2], 6.64 in the series with HCT-116 and 6.20 in the series with MDA-MB-436.

As to `O=C(CCCC(=O)Nc1ccc(CCCCc2nnc(NC(=O)Cc3ccccn3)s2)nn1)NCCNC(=S)Nc1ccc2c(c1)C1(OC2=O)c2ccc(O)cc2Oc2cc(O)ccc21`, the values for the Activity entry in series [8] and in series [11] were “Not Active” and “Dose-dependent effect”, respectively. The fold change (FC) in series [9] worked out at 2. For the same compound, the pKd in [10] is 6.35; in series [6], 6.21.

On to `Cc1ccc(Cn2cc(CCC(=O)Nc3nnc(CCCCc4nnc(NC(=O)Cc5ccccc5)s4)s3)nn2)c(C)c1`, for which the pIC50 was 6.55 in [1], 6.30 in [2], 6.00 in the series with HCT-116 and 6.37 with MDA-MB-436. The pKd in [6] was 6.46. The ΔTm in series [7] was 7.7 °C.

Turning to `COc1ccc(Cn2cc(CCC(=O)Nc3nnc(CCCCc4nnc(NC(=O)Cc5ccccc5)s4)s3)nn2)cc1`, the negative-log IC50 (pIC50) was 6.29 in series [1], 6.12 in [2], 6.25 in the series with HCT-116 and 5.26 in the series with MDA-MB-436.

For the origin of these results see ChEMBL document CHEMBL4334507, “Development and Characterization of a Fluorescent Probe for GLS1 and the Application for High-Throughput Screening of Allosteric Inhibitors” (J Med Chem, 2019).
